Measurements published in US20060009493A1, “Indolinone hydrazides as c-Met inhibitors” (Sugen, Inc., priority 2003, published 2006).
Counter-ions that a name gives are not always drawn.

Target: T1, GST fusion protein containing the Met kinase domain (Homo sapiens, UniProt P08581)
T1 construct: Purified GST fusion protein containing the Met kinase domain, Sugen, Inc
Experiment: MET Transphosphorylation Assay (ELISA, poly(Glu,Tyr) 4:1 substrate)
Format: biochemical
Details: met transphosphorylation of poly(glutamic acid:tyrosine 4:1) substrate; two values in a cell separated by '/'
Protocol: MET Transphosphorylation Assay
This assay is used to measure phosphotyrosine levels on a poly(glutamic acid:tyrosine (4:1)) substrate as a means for identifying agonists/antagonists of met transphosphorylation of the substrate.
• 1. […] PBS, Gibco Catalog # 450-1300EB • 4. 50 mM HEPES • 5. […] Purified GST fusion protein containing the Met kinase domain, Sugen, Inc. • 7. TBST Buffer. • 8. 10% aqueous (MilliQue H2O) DMSO. • 9. […] 2× Kinase Dilution Buffer: for 100 ml, mix 10 mL 1M HEPES at pH 7.5 with 0.4 mL 5% BSA/PBS, 0.2 mL 0.1 M sodium orthovanadate and 1 mL 5M sodium chloride in 88.4 mL dH2O. • 11. 4×ATP Reaction Mixture: for 10 mL, mix 0.4 mL 1 M manganese chloride and 0.02 mL 0.1 M ATP in […] dH2O. • 12. 4× Negative Controls Mixture: for 10 mL, mix 0.4 mL 1 M manganese chloride in 9.6 mL dH2O.
13. […] 500 mM EDTA. • 15. Antibody Dilution Buffer: for 100 mL, mix 10 mL 5% BSA/PBS, 0.5 mL 5% Carnation Instant Milk® in PBS and 0.1 mL 0.1 M sodium orthovanadate in 88.4 mL TBST. • 16. Rabbit polyclonal antophosphotyrosine antibody, Sugen, Inc. • 17. Goat anti-rabbit horseradish peroxidase conjugated antibody, Biosource, Inc. • 18. ABTS Solution: for 1 L, mix 19.21 g citric acid, 35.49 g Na2HPO4 and 500 mg ABTS with sufficient dH2O to make 1 L. • 19. ABTS/H2O2: mix 15 mL ABST solution with 2 μL H2O2 five minutes before use. • 20. 0.2 M HCl Procedure: • 1. Coat ELISA plates with 2 μg Poly(Glu-Tyr) in 100 μL PBS, store overnight at 4° C. • 2. Block plate with 150 μL of 5% BSA/PBS for 60 min. • 3. Wash plate twice with PBS, once with 50 mM Hepes buffer pH 7.4. • 4. Add 50 μl of the diluted kinase to all wells. (Purified kinase is diluted with Kinase Dilution Buffer. Final concentration should be 10 ng/well.) • 5. Add 25 μL of the test compound (in 4% DMSO) or DMSO alone (4% in dH2O) for controls to plate. • 6. Incubate the kinase/compound mixture for 15 minutes. • 7. Add 25 μL of 40 mM MnCl2 to the negative control wells. • 8. Add 25 μL ATP/MnCl2 mixture to the all other wells (except the negative controls). Incubate for 5 min. • 9. Add 25 μL 500 mM EDTA to stop reaction. • 10. Wash plate 3× with TBST. • 11. Add 100 μL rabbit polyclonal anti-Ptyr diluted 1:10,000 in Antibody Dilution Buffer to each well. Incubate, with shaking, at room temperature for one hour. • 12. Wash plate 3× with TBST. • 13. […] Add 100 μL per well and incubate at room temperature, with shaking, for one hour. • 14. Wash plate 1× with PBS. • 15. Add 100 μl of ABTS/H2O2 solution to each well. • 16. If necessary, stop the development reaction with the addition of […] of 0.2M HCl per well. • 17.

T1 sequence (P08581 1078-1345 limits assumed): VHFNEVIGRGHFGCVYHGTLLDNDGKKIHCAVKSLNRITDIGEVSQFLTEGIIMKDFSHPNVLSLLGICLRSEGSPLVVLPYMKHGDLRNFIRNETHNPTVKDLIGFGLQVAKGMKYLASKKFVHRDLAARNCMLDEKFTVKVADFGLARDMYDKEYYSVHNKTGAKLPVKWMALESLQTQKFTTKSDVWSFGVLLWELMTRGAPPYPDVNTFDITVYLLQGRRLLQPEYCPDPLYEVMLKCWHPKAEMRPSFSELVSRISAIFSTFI

| SMILES | IC50 [nM] |
| --- | --- |
| CC(C(=O)N/N=C1\C(=O)Nc2ccc(Br)cc21)c1ccc2c(c1)OCO2 (centres unmarked) [Example I-53, 2-Benzo[1,3]dioxol-5-yl-propionic acid [(3Z)-5-bromo-2-oxo-1,2-dihydro-indol-3-ylidene]-hydrazide] | 740 |
| COc1ccc(CCC(=O)N/N=C2\C(=O)Nc3c(Cl)ccc(Cl)c32)cc1 [II-86, 3-(4-Methoxy-phenyl)-propionic acid [(3Z)-4,7-dichloro-2-oxo-1,2-dihydro-indol-3-ylidene]-hydrazide] | 2000 |
| CC(C)C(C(=O)N/N=C1\C(=O)Nc2ccccc21)c1ccc(O)cc1 (centres unmarked) [II-68, 2-(4-Hydroxy-phenyl)-3-methyl-butyric acid [(3Z)-2-oxo-1,2-dihydro-indol-3-ylidene)-hydrazide] | 1450 |
| Cn1cc(CC(=O)N/N=C2\C(=O)Nc3ccc(C(=O)O)c(Cl)c32)ccc1=O [Example I-34, (3Z)-4-Chloro-3-{[2-(1-methyl-6-oxo-1,6-dihydro-pyridin-3-yl)-acetyl]-hydrazono}-2-oxo-2,3-dihydro-1H-indole-5-carboxylic acid] | 2080 |
| Cn1cc(CC(=O)N/N=C2\C(=O)Nc3ccc(C(=O)N4CCC[C@@H]4CN4CCCC4)c(Cl)c32)ccc1=O [Example I-36, (1-Methyl-6-oxo-1,6-dihydro-pyridin-3-yl)-acetic acid [(3Z)-4-chloro-2-oxo-5-[(2R)-2-pyrrolidin-1-ylmethyl-pyrrolidine-1-carbonyl]-1,2-dihydro-indol-3-ylidene]-hydrazide] | 4150 |
| O=C(Cc1ccc(O)cc1)N/N=C1\C(=O)Nc2c(Cl)cc(Cl)cc21 [II-61, (4-Hydroxy-phenyl)-acetic acid [(3Z)-5,7-dichloro-2-oxo-1,2-dihydro-indol-3-ylidene)-hydrazide] | 88 |
| COc1ccc(CC(=O)N/N=C2\C(=O)Nc3c(Cl)ccc(Cl)c32)cc1C [II-70, (4-Methoxy-3-methyl-phenyl)-acetic acid [(3Z)-4,7-dichloro-2-oxo-1,2-dihydro-indol-3-ylidene]-hydrazide] | > 20000 |
| CC(C(=O)N/N=C1\C(=O)Nc2ccc(C(=O)N3CC[C@H](N)C3)c(Cl)c21)c1ccc(F)cc1 (stereo partly drawn) [Example I-48, 2-(4-Fluoro-phenyl)-propionic acid [(3Z)-5-[(3S)-3-amino-pyrrolidine-1-carbonyl]-4-chloro-2-oxo-1,2-dihydro-indol-3-ylidene]-hydrazide trifluoroacetate] | 460 |
| Nc1cccc(CC(=O)N/N=C2\C(=O)Nc3c(Cl)ccc(Cl)c32)c1 [II-78, (3-Amino-phenyl)-acetic acid [(3Z)-4,7-dichloro-2-oxo-1,2-dihydro-indol-3-ylidene]-hydrazide] | 110 |
| CS(=O)(=O)c1ccc(CC(=O)N/N=C2\C(=O)Nc3ccccc32)cc1 [Example I-21, (4-Methanesulfonyl-phenyl)-acetic acid [(3Z)-2-oxo-1,2-dihydro-indol-3-ylidene]-hydrazide] | > 20000 |
| Cc1cccc2c1/C(=N/NC(=O)Cc1ccc(O)cc1)C(=O)N2 [II-47, (4-Hydroxy-phenyl)-acetic acid [(3Z)-4-methyl-2-oxo-1,2-dihydro-indol-3-ylidene]-hydrazide] | 22 |
| CC(C(=O)N/N=C1\C(=O)Nc2ccc(C#CCN(C)C)cc21)c1ccc(F)cc1 (centres unmarked) [Example I-51, 2-(4-Fluoro-phenyl)-propionic acid [(3Z)-5-(3-dimethylamino-prop-1-ynyl)-2-oxo-1,2-dihydro-indol-3-ylidene]-hydrazide] | 5100 |
| CC(C)(C(=O)N/N=C1\C(=O)Nc2c(Cl)ccc(Cl)c21)c1ccc(Cl)cc1 [II-91, 2-(4-Chloro-phenyl)-2-methyl-propionic acid [(3Z)-4,7-dichloro-2-oxo-1,2-dihydro-indol-3-ylidene]-hydrazide] | > 20000 |
| CC(C(=O)N/N=C1\C(=O)Nc2ccc(Cl)c(Cl)c21)c1ccc(O)cc1 (centres unmarked) [II-44] | 22 |
